Results reported in US9512139B2, “Conformationally constrained, fully synthetic macrocyclic compounds” (POLYPHOR AG, priority 2009, dated 2016).
Where two headings read alike, the source gives them in different places.

Assays:
Motilin Receptor = biological target: T1, Motilin Receptor (Homo sapiens, UniProt O43193); assay: Ca2+ assay (FLIPR) for the GPCR motilin receptor, agonist and antagonist mode; assay type: cell-based; details: antagonist mode, at 10 μM
T1 construct: host or cells: Ca2+ optimized hematopoietic cell lines (rat)
T1 sequence (O43193 whole entry, species assumed): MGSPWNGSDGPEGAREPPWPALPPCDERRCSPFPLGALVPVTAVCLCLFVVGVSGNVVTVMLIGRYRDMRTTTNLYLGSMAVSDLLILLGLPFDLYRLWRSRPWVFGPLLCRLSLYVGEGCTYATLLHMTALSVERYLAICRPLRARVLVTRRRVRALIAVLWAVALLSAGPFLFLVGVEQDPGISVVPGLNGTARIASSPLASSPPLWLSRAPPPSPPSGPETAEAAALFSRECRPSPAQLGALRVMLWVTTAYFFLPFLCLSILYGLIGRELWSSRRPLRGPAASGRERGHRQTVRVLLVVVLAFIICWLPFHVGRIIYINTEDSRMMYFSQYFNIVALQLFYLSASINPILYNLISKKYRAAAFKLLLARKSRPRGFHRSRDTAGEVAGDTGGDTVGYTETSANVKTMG
Method: Ca^2+ Assays for the GPCRs Motilin Receptor, Prostaglandin F (FP) Receptor, 5-hydroxytryptamine 2B (5-HT2B) Receptor, and Purinoreceptor P2Y1
Assays were performed using on a FLIPR^TETRA fluorometric imaging plate reader (Molecular Devices) with ScreenWorks Version 2 (Molecular Devices) as device operating and data analysis software.
Dose dependent agonist and antagonist activities were determined. Percentage activation and percentage inhibition values were determined.
Percentage activation was determined upon initial addition of the sample compounds followed by 10 minutes incubation at 25° C. Following compound incubation, reference agonists were added at EC80 to determine percentage inhibition.
Reference agonists were purchased from reputable commercial vendors and prepared according to each ligand's specifications. All handling of ligands were done to ensure proper control throughout the experiments.
Example compounds were weighed on a Microbalance (Mettler MX5) and dissolved in 100% DMSO to a final concentration of 2.5 mM and subsequently diluted into the assay buffer.
The Assay buffer was a supplemented HBSS (Hank's Balanced Salt Solution). HBSS was supplemented with 20 mM HEPES (4-(2-hydroxyethyl)-piperazin-1-ethansulfonic acid) and 2.5 mM Probenecid (Sigma P8761).
GPCR assays were performed using Ca^2+ optimized hematopoietic cell lines (rat) with cultures never exceeding 90% confluency. […] After seeding, the assay plates were incubated for forty-five (45) minutes at room temperature. After room temperature incubation, the assay plates were incubated at 37° C. 5% CO2 for 24 hours prior to assaying.
All GPCR assays were performed using Fluo-8 Ca^2+ dye. Ca^2+ dye was prepared at 1× dye concentration in GPCR assay buffer. After 24 hours of incubation, cells were washed with GPCR assay buffer, and then Ca^2+-dye (100 μL/well) was added.
The plates were incubated for 90 minutes at 30° C. 5% CO2 prior to FLIPR assay.
Compound plates were prepared to add 50 μL/well during the agonist assay mode. During the FLIPR assay, 50 μL/well from the compound plate was diluted 3-fold into the existing 100 μL/well from the dye loading step. Therefore all compounds were prepared as 3× the final concentration desired in the assay.
After completion of the first single addition assay run, assay plate was removed from the FLIPR Tetra and placed at 25° C. for seven (7) minutes before antagonist assay.
Using the EC80 values determined during the agonist assay, all pre-incubated sample compound and reference antagonist (if applicable) wells were stimulated at the EC80 of the reference agonist. As reference ligands for the first three assays their obvious natural ligands motilin, prostaglandin F2α, and serotonin (5-HT, 5-Hydroxytryptamine) were used; and for the P2Y1 assay 2MeSATP (2-methyl-thio-adeno-sine 5′-triphosphate, i.e. (2R,3S,4R)-5-(6-amino-2-methylsulfanyl-purin-9-yl)-3,4-dihydroxy-tetrahydrofuran-2-yl]methyl (hydroxy-phosphonooxy-phosphoryl)hydrogen phosphate) was applied.
After the addition of the reference agonist fluorescence was monitored for 180 sec using FLIPR Tetra.
Data Analysis and Results:
From the FLIPR data, with negative control correction enabled, the maximum statistic for each well was exported and percentage activation relative to Emax control was calculated.

[1] = Metabolic stability assay, human microsomes; assay type: in vitro ADME; details: human, microsomes; for Metabolic Stability T½ [min] hum / Metabolic Stability 60 min hum [% remain.]: both, 10 µM; for Metabolic Stability 60 min hum [% remain.]: 1 h
[2] = Pharmacokinetic study after single i.v. and p.o. administration in male SD rats; assay type: in vivo; details: rat; for Cmax / Tmax / C0 / half-life / bioavailability: male, SD, plasma; for C0: extrapolated to tzero; for half-life: read-out: T1/2 (terminal) (converted)
Method: 5. Pharmacokinetic Study (PK) Analysis
Pharmacokinetic analyses after single intravenous (i.v.) and two different peroral (p.o.) administrations were performed for the test compounds. 240 grams (±10 gram) male SD rats were catheterized and used in the study. The vehicle, Solutol HS-15/0.9% saline (5:95), was added to give a final concentration of 0.33 mg/ml of the compounds for i.v. application, and 0.5 or 2.0 mg/ml for p.o. applications. The volumes used for applications were 3 ml/kg i.v. and 10 ml/kg p.o. resulting in a final dose of 1 mg/kg for the intravenous dose and 5 or 20 mg/kg for the peroral doses.
Blood samples were withdrawn via the catheter at 1) predose, 5, 15, 30, 60, 120, 240, and 480 minutes for the i.v. application and 2) predose, 15, 30, 60, 120, 240, 480 and 720 minutes for the p.o. applications. Plasma was prepared by centrifugation of heparinized whole blood. Plasma samples (˜120 μl each time point, Li-Heparin, 20 IE/ml) were stored at −80° C. until HPLC-MSMS analysis.
Preparation of the Plasma Calibration Samples:
“Blank” rat plasma from untreated animals was used. Aliquots of plasma of 50 μL each were spiked with Internal Standard (ISTD) and with known amounts test compounds in order to obtain 11 plasma calibration samples in the range 0.25-4000 ng/mL.
Preparation of Plasma Samples:
To 50 μL of sample from treated animals 20 μL of internal standard were added. After mixing with 200 μL of acetonitrile, 2% HCOOH were added and each sample was vortexed for several seconds. Precipitated material was removed by centrifugation for 10 min (13200 rpm), the supernatant removed and dried under a constant flow of N2 (Porvair, MiniVap). To reconstitute the dried samples, 200 μL of [DMSO/acetonitrile/H2O, 4/4/2 (v/v/v)+2% HCOOH] were added and the sample was shaken for at least 5 minutes.
LC-MSMS Analysis of Samples:
Reconstituted samples were analysed by HPLC/MSMS on a reverse phase analytical column (BEH C18, 100×2.1 mm, 1.7 μm, Waters). Mobile phase A: H2O/acetonitrile (95:5, v:v) 0.1% formic acid, mobile phase B: Acetonitrile/H2O (95:5, v:v) 0.1% formic acid. Compounds were eluted from the column by using a gradient from 1% B to 60% B in 2.5 min.).
Pharmacokinetic Evaluation:
PK analysis was performed on mean values (generally n=3) using WinNonLin software (Version 5.3, Pharsight Corporation). The area under the curve AUC was calculated by the linear trapezoidal rule (linear interpolation, uniform weighting). AUC(t-∞) was estimated as Ct/b (b: elimination rate constant). […] the sum of AUC(0-t) and AUC(t-∞). Elimination half-life was calculated by the linear regression on at least three data points during the elimination phase. The time intervals selected for the half-life determinations were evaluated by the correlation coefficient (r^2), which should be at least above 0.85 and ideally above 0.96.
In case of i.v. administration the initial concentration at tzero was determined by extrapolation of the curve through the first two time points. Finally bioavailability after p.o. administration was calculated from the dose normalized AUC(0-∞) ration after p.o. versus i.v. administration.

in vitro [3] = assay type: in vitro ADME, human; details: human, plasma, 10 µM; for Plasma Stability 240 min hum [% remain.]: 4 h
[4] = Metabolic stability assay, CD-1 mouse microsomes; assay type: in vitro ADME; details: both, CD-1, mouse, microsomes, 10 µM; for Metabolic Stability 60 min mouse [% remain.]: 1 h
in vitro [5] = assay type: in vitro ADME, mouse; details: both, CD-1, mouse, plasma, 10 µM; for Plasma Stability 240 min mouse [% remain.]: 4 h
Method: Example compounds were dissolved in DMSO/H2O 90:10 to a final concentration of 10 mM for plasma stability determination and metabolic stability determination.
Human plasma (3-5 donors, Blutspendedienst SRK, Basel) and CD-1 mouse plasma (mixed gender pool >50 animals, Innovative Research, CA, USA) are both sodium citrate stabilized. The assay is performed in triplicates at 10 μM compound concentration and 37° C. Samples are taken at 0, 15, 60, and 240 minutes and stopped by precipitation with 2 volumes of acetonitrile. The supernatant is collected, evaporated and reconstituted in a 5% acetonitrile solution to be analyzed by HPLC/MS/MS. The resulting peak area counts are expressed in percent of the 0 value and used to determine the endpoint stability in % and the half life in minutes. In order to monitor assay integrity the degradation of propantheline is assayed with every experimental set.

[6] = Metabolic stability assay, rat microsomes (values in parentheses); assay type: in vitro ADME; details: value in parentheses
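Throughout, for Plasma Stability 240 min mouse [% remain.]: sodium citrate stabilized mouse plasma, parent compound quantified by HPLC/MS/MS relative to its peak area at time zero, run in triplicate.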
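Throughout, for Plasma Stability T½ [min] mouse: sodium citrate stabilized mouse plasma, parent compound quantified by HPLC/MS/MS relative to its peak area at time zero, run in triplicate.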

| Metabolic Stability 60 min hum [% remain.] [1] | Cmax ([2]; iv, 1 mg/kg) | Tmax ([2]; iv, 1 mg/kg) | C0 ([2]; iv, 1 mg/kg) | half-life ([2]; iv, 1 mg/kg) | Cmax ([2]; po, 5 mg/kg) | Tmax ([2]; po, 5 mg/kg) | bioavailability ([2]; po, 5 mg/kg) | half-life ([2]; po, 5 mg/kg) | Cmax ([2]; po, 20 mg/kg) | Tmax ([2]; po, 20 mg/kg) | bioavailability ([2]; po, 20 mg/kg) | half-life ([2]; po, 20 mg/kg) | AUC(t-∞) dose normalized ([2]; iv, 1 mg/kg) | Cmax dose normalized ([2]; iv, 1 mg/kg) | V (terminal) ([2]; iv, 1 mg/kg) | AUC(t-∞) dose normalized ([2]; po, 5 mg/kg) | Cmax dose normalized ([2]; po, 5 mg/kg) | AUC(t-∞) dose normalized ([2]; po, 20 mg/kg) | Cmax dose normalized ([2]; po, 20 mg/kg) | SMILES | other results |
| --- | --- | --- | --- | --- | --- | --- | --- | --- | --- | --- | --- | --- | --- | --- | --- | --- | --- | --- | --- | --- | --- |
|  |  |  |  |  |  |  |  |  |  |  |  |  |  |  |  |  |  |  |  | CN1CC(=O)N2C[C@@H](NC(=O)Cc3cccc4ccccc34)C[C@H]2COc2ccc(F)cc2C(=O)N(C)[C@H](C(=O)NCc2cccnc2)CCC1=O [Ex. 497, (2S,11S,19aS)-15-fluoro-7,12-dimethyl-2-{[2-(1-naphthyl)acetyl]amino}-5,8,13-trioxo-N-(3-pyridinylmethyl)-2,3,6,7,8,9, 10,11,12,13,19,19a-dodecahydro-1H,5H-pyrrolo[2,1-c][1,4,7,12]benzoxatriazacyclo-pentadecine-11-carboxamide] | Antagonist activity [% Inhibition at 10 μM] (Motilin Receptor): 24% |
| 53 % remain. | 195 ng/mL | 0.08 h | 285 ng/mL | 1.67 h | 64.3 ng/mL | 0.25 h | 17.8% | 1.92 h | 380 ng/mL | 0.25 h | 21.6% | 2.07 h | 167.93 kg·ng·h/mL/mg | 194.67 kg·ng/mL/mg | 14.32056 L/kg | 29.83 kg·ng·h/mL/mg | 12.87 kg·ng/mL/mg | 36.22 kg·ng·h/mL/mg | 18.98 kg·ng/mL/mg | CN1CCC[C@H](N)C(=O)N2C[C@@H](OCc3ccccc3)C[C@H]2COc2cccc(c2)C1=O [Ex. 568, (4S,6S,10S)-10-amino-6-(benzyloxy)-14-methyl-2-oxa-8,14-diazatricyclo[14.3.1.0^4,8]icosa-1(20),16,18-triene-9,15-dione] | Metabolic Stability T½ [min] hum [1]: > 60 min; Plasma Stability T½ [min] hum (in vitro [3]): > 240 min; Plasma Stability 240 min hum [% remain.] (in vitro [3]): 97 % remain.; Metabolic Stability T½ [min] mouse [4]: > 60 min; Metabolic Stability 60 min mouse [% remain.] [4]: 60 % remain.; Plasma Stability T½ [min] mouse (in vitro [5]): > 240 min; Plasma Stability 240 min mouse [% remain.] (in vitro [5]): 89 % remain.; Metabolic Stability 60 min (rat) [% remain.] [6]: 57 % remain.; Metabolic Stability T½ [min] (rat) [6]: 60 (60) min |
| 42 % remain. | 184 ng/mL | 0.08 h | 240 ng/mL | 2.11 h | 67 ng/mL | 0.5 h | 10.9% | 3 h | 248 ng/mL | 0.25 h | 16.8% | 2.71 h | 219.89 kg·ng·h/mL/mg | 183.67 kg·ng/mL/mg | 13.8314 L/kg | 24.00 kg·ng·h/mL/mg | 13.40 kg·ng/mL/mg | 36.88 kg·ng·h/mL/mg | 12.40 kg·ng/mL/mg | CN1CCC[C@H](N)C(=O)N2C[C@@H](Oc3ccccc3)C[C@H]2COc2cccc(c2)C1=O [Ex. 561, (4S,6S,10S)-10-amino-14-methyl-6-phenoxy-2-oxa-8,14-diazatricyclo[14.3.1.0^4,8]icosa-1(20),16,18-triene-9,15-dione] | half-life at 10 µM ([1]; both sexes): 0.65 h; Plasma Stability T½ [min] hum (in vitro [3]): > 240 min; Plasma Stability 240 min hum [% remain.] (in vitro [3]): 99 % remain.; Metabolic Stability T½ [min] mouse [4]: > 60 min; Metabolic Stability 60 min mouse [% remain.] [4]: 79 % remain.; Plasma Stability T½ [min] mouse (in vitro [5]): > 240 min; Plasma Stability 240 min mouse [% remain.] (in vitro [5]): 100 % remain.; Metabolic Stability 60 min (rat) [% remain.] [6]: 53 % remain.; half-life at 10 µM ([6]; read-out: Metabolic Stability T½ [min] (rat)): 56 min |
| 90 % remain. | 644 ng/mL | 0.08 h | 932 ng/mL | 1.7 h | 340 ng/mL | 0.25 h | 29% | 2.18 h | 1520 ng/mL | 0.25 h | 27.2% | 2.3 h | 321.32 kg·ng·h/mL/mg | 643.67 kg·ng/mL/mg | 7.61859 L/kg | 93.34 kg·ng·h/mL/mg | 68.07 kg·ng/mL/mg | 87.49 kg·ng·h/mL/mg | 75.83 kg·ng/mL/mg | CN1CCC[C@H](NC(=O)CC(C)(C)C)C(=O)N2C[C@@H](O)C[C@H]2COc2cccc(c2)C1=O [Ex. 571, N-[(4S,6S,10S)-6-hydroxy-14-methyl-9,15-dioxo-2-oxa-8,14-diazatricyclo[14.3.1.0^4,8]icosa-1(20),16,18-trien-10-yl]-3,3-dimethylbutanamide] | Metabolic Stability T½ [min] hum [1]: > 60 min; Plasma Stability T½ [min] hum (in vitro [3]): > 240 min; Plasma Stability 240 min hum [% remain.] (in vitro [3]): 86 % remain.; Metabolic Stability T½ [min] mouse [4]: > 60 min; Metabolic Stability 60 min mouse [% remain.] [4]: 74 % remain.; Plasma Stability T½ [min] mouse (in vitro [5]): > 240 min; Plasma Stability 240 min mouse [% remain.] (in vitro [5]): 89 % remain.; Metabolic Stability 60 min (rat) [% remain.] [6]: 88 % remain.; Metabolic Stability T½ [min] (rat) [6]: 60 (60) min |
